pIC50: −log10 of the molar value.
Molecular target: purified human Hsp90
Experiment: Binding Assay: fluorescence polarization with BODIPY-labeled geldanamycin
Settings: BODIPY-GM 10 nM, Hsp90 30 nM
Protocol: Compound binding to purified Hsp90 was monitored using BODIPY-labeled geldanamycin (BODIPY-GM) in a fluorescence polarization assay adapted from Kim et al. (Journal of Biomolecular Screening 2004, 9(5):375-381). Compound dilutions (in 100% DMSO) were added to black-bottom 96-well plates (Greiner; 2% DMSO final), and equal volumes of BODIPY-GM (10 nM final) and purified human Hsp90 (Stressgen, SPP-770; 30 nM final) in assay buffer (20 mM HEPES-KOH pH 7.3, 50 mM KCl, 5 mM MgCl2, 20 mM Na2MoO4, 0.01% NP-40, 0.1 mg/mL bovine gamma globulin [Invitrogen, P2045], 2 mM DTT) were added sequentially to yield a final volume of 50 microliters. Plates were incubated overnight at room temperature. Parallel and perpendicular fluorescence measurements were read (LJL BioSystems Analyst AD plate reader) with excitation/emission wavelengths of 485/530 nm. Background fluorescence (buffer only) was subtracted, and fluorescence polarization (FP) values, expressed in mP units, were calculated from parallel and perpendicular fluorescence readings as follows: FP=(parallel−perpendicular)/(parallel+perpendicular)*1000
Percent inhibition was calculated by normalizing the FP values to those obtained in parallel reactions containing DMSO and subtracting these normalized values from 100%. Intrinsic compound fluorescence was independently monitored, and FP data points confounded by compound fluorescence were excluded from the analysis.

Structure (SMILES) | pIC50 | % Inhibition at 5 μM Compound Concentration [%]
Nc1ncnc2c1nc(Sc1cc3c(cc1Br)OCO3)n2CCc1ccccc1Cl [Example 53, 8-(6-Bromo-benzo[1,3]dioxol-5-ylsulfanyl)-9-[2-(2-chloro-phenyl)-ethyl]-9H-purin-6-ylamine] | 7.35 | 
CC(C)n1nnnc1N1CCC(CCn2c(Sc3cc4c(cc3Br)OCO4)nc3c(N)ncnc32)CC1 [Example 612, 8-[(6-Bromo-1,3-benzodioxol-5-yl)thio]-9-{2-[1-(1-isopropyl-1 H-tetrazol-5-yl)piperidin-4-yl]ethyl}-9 H-purin-6-amine] | 6.64 | 
COc1ccc(I)c(Sc2nc3c(N)ncn(CCc4ccc(I)cc4)c-3n2)c1 [Example 311, 8-[(2-Iodo-5-methoxyphenyl)thio]-3-[2-(4-iodophenyl)ethyl]-3H-purin-6-amine] |  | 0.0
CC(=O)N1CCC(CCn2c(Sc3nc4cccc(Cl)c4s3)nc3c(N)ncnc32)CC1 [Example 657, 9-[2-(1-Acetylpiperidin-4-yl)ethyl]-8-[(7-chloro-1,3-benzothiazol-2-yl)thio]-9H-purin-6-amine] | 6.72 | 
CCC(C)C(Cn1c(Sc2cc(OC)ccc2OC)nc2c(N)ncnc21)c1ccccc1 (stereo not shown) [Example 105, 8-(2,5-Dimethoxy-phenylsulfanyl)-9-(3-methyl-2-phenyl-pentyl)-9H-purin-6-ylamine] | < 6.00 | 
Nc1ncn(CCc2ccccc2)c2nc(Sc3ccc4ncoc4c3)nc1-2 [Example 284, 8-(1,3-Benzoxazol-6-ylthio)-3-(2-phenylethyl)-3H-purin-6-amine] |  | 3.0
Nc1ncn(CCC2CCN(C=O)CC2)c2nc(Sc3cc(OCc4ccccc4)c(OCc4ccccc4)cc3Br)nc1-2 [Example 554, 4-[2-(6-Amino-8-{[4,5-bis (benzyloxy)-2-bromophenyl]thio}-3 H-purin-3-yl)ethyl]piperidine-1-carbaldehyde] |  | 0.00
COc1ccc(OC)c(Sc2nc3c(N)ncnc3n2CC(c2ccccc2)C(C)C)c1 (stereo not shown) [Example 113, 8-(2,5-Dimethoxy-phenylsulfanyl)-9-(3-methyl-2-phenyl-butyl)-9H-purin-6-ylamine] | 6.26 | 
Nc1ncnc2c1nc(Sc1cc3c(cc1Br)OCO3)n2CCC1CCN(Cc2ccc(F)cc2)CC1 [Example 579, 8-[(6-Bromo-1,3-benzodioxol-5-yl)thio]-9-{2-[1-(4-fluorobenzyl)piperidin-4-yl]ethyl}-9 H-purin-6-amine] | 6.51 | 
Nc1ncnc2c1nc(Sc1cc3c(cc1Br)OCO3)n2CCC1CCN(C(=O)CO)CC1 [Example 760, 2-[4-(2-{6-Amino-8-[(6-bromo-1,3-benzodioxol-5-yl)thio]-9H-purin-9-yl}ethyl)piperidin-1-yl]-2-oxoethanol] | 6.49 | 
C[C@H](N)C(=O)N1CCCC(CCn2c(Sc3cc4c(cc3Br)OCO4)nc3c(N)ncnc32)C1 (stereo partly drawn) [Example 747, 9-(2-{1-[(2S)-2-Aminopropanoyl]piperidin-3-yl}ethyl)-8-[(6-bromo-1,3-benzodioxol-5-yl)thio]-9H-purin-6-amine] | 6.96 | 
Nc1ncnc2c1nc(Sc1ccc3occc3c1)n2CCC1CCN(C=O)CC1 [Example 539, 4-{2-[6-Amino-8-(1-benzofuran-5-ylthio)-9 H-purin-9-yl]ethyl}piperidine-1-carbaldehyde] | < 5.30 | 
Nc1ncnc2c1nc(Sc1cc3c(cc1Br)OCO3)n2CC1CCNCC1 [Example 648, 8-[(6-bromo-1,3-benzodioxol-5-yl)thio]-9-(piperidin-4-ylmethyl)-9H-purin-6-amine] | 6.16 | 
Nc1ncnc2c1nc(Cc1cc3c(cc1Br)OCO3)n2CCc1ccccc1 [Example 209, 8-(6-Bromo-benzo[1,3]dioxol-5-ylmethyl)-9-phenethyl-9H-purin-6-ylamine] | 6.35 | 
CCC(C)C(Cn1cnc(N)c2nc(Sc3cc4c(cc3Br)OCO4)nc1-2)c1ccccc1 (stereo not shown) [Example 100, 8-(6-bromo-benzo[1,3]dioxol-5-ylsulfanyl)-3-(3-methyl-2-phenyl-pentyl)-3H-purin-6-ylamine] |  | 39
Nc1ncnc2c1nc(Sc1cc3c(cc1Br)OCO3)n2CC1(c2ccc(Cl)cc2)CCC1 [Example 95, 8-(6-Bromo-benzo[1,3]dioxol-5-ylsulfanyl)-9-[1-(4-chloro-phenyl)-cyclobutylmethyl]-9H-purin-6-ylamine] | < 5.52 | 
Nc1ncnc2c1nc(Sc1ccc3c(c1)CCC3=O)n2CCC1CCN(C=O)CC1 [Example 555, 4-(2-{6-Amino-8-[(1-oxo-2,3-dihydro-1 H-inden-5-yl)thio]-9 H-purin-9-yl}ethyl)piperidine-1-carbaldehyde] | 6.15 | 

Structure (SMILES) | pIC50 | % Inhibition at 5 μM Compound Concentration [%]
Nc1ncn(CCc2ccccc2F)c2nc(Sc3cc4c(cc3Br)OCO4)nc1-2 [Example 148, 8-(6-bromo-benzo[1,3]dioxol-5-ylsulfanyl)-3-[2-(2-fluoro-phenyl)-ethyl]-3H-purin-6-ylamine] |  | 35
CC(C)(C)OC(=O)N1CCC[C@H]1C(=O)N1CCC(CCn2cnc(N)c3nc(Sc4cc5c(cc4Br)OCO5)nc2-3)CC1 [Example 731, tert-Butyl(2S)-2-{[4-(2-{6-amino-8-[(6-bromo-1,3-benzodioxol-5-yl)thio]-3H-purin-3-yl}ethyl)piperidin-1-yl]carbonyl}pyrrolidine-1-carboxylate] |  | 1.0
COc1ccc(OC)c(Sc2nc3c(N)ncnc3n2CCc2ccc(S(=O)(=O)O)cc2)c1 [Example 175, 4-{2-[6-Amino-8-(2,5-dimethoxy-phenylsulfanyl)-purin-9-yl]-ethyl}-benzenesulfonic acid] | 4.85 | 46
COc1ccc(OC)c(Sc2nc3c(N)ncnc3n2CCc2cccc(Br)c2)c1 [Example 77, 9-[2-(3-Bromo-phenyl)-ethyl]-8-(2,5-dimethoxy-phenylsulfanyl)-9H-purin-6-ylamine] | 5.72 | 
COc1ccc(OC)c(Sc2nc3c(N)ncn(CCc4ccc(Cl)cc4F)c-3n2)c1 [Example 98, 3-[2-(4-chloro-2-fluoro-phenyl)-ethyl]-8-(2,5-dimethoxy-phenylsulfanyl)-3H-purin-6-ylamine] |  | 0
CC(C)CN1CCCCC1CCn1cnc(N)c2nc(Sc3cc4c(cc3Br)OCO4)nc1-2 (stereo not shown) [Example 448, 8-[(6-Bromo-1,3-benzodioxol-5-yl)thio]-3-[2-(1-isobutylpiperidin-2-yl)ethyl]-3H-purin-6-amine] |  | 45
CC(C)(C)OC(=O)N1CC(CCn2cnc(N)c3nc(Sc4cc5c(cc4Br)OCO5)nc2-3)C1 [Example 459, tert-Butyl 3-(2-{6-amino-8-[(6-bromo-1,3-benzodioxol-5-yl)thio]-3H-purin-3-yl}ethyl)azetidine-1-carboxylate] |  | 18
C[C@H](N)C(=O)N1CCC(CCn2c(Sc3nc4cccc(Cl)c4s3)nc3c(N)ncnc32)CC1 [Example 774, 9-(2-{1-[(2S)-2-Aminopropanoyl]piperidin-4-yl}ethyl)-8-[(7-chloro-1,3-benzothiazol-2-yl)thio]-9H-purin-6-amine] | 6.70 | 
COc1ccc(OC)c(Sc2nc3c(N)ncn(CCN4CCCCC4)c-3n2)c1 [Example 490, 8-[(2,5-Dimethoxyphenyl)thio]-3-(2-piperidin-1-ylethyl)-3 H-purin-6-amine] | 4.60 | 
COc1ccc(OC)c(Sc2nc3c(N)ncnc3n2CC2(c3ccc(Cl)cc3)CC2)c1 [Example 279, 9-{[1-(4-Chlorophenyl)cyclopropyl]methyl}-8-[(2,5-dimethoxyphenyl)thio]-9H-purin-6-amine] | < 4.60 | 
CC(C)(C)OC(=O)N1CCCC(CCCn2c(Sc3cc4c(cc3Br)OCO4)nc3c(N)ncnc32)C1 (stereo not shown) [Example 637, tert-Butyl 3-(3-{6-amino-8-[(6-bromo-1,3-benzodioxol-5-yl)thio]-9 H-purin-9-yl}propyl)piperidine-1-carboxylate] | < 4.60 | 
CCNC(=O)N1CCC(CCn2c(Sc3cc4c(cc3Br)OCO4)nc3c(N)ncnc32)CC1 [Example 431, 4-(2-{6-Amino-8-[(6-bromo-1,3-benzodioxol-5-yl)thio]-9H-purin-9-yl}ethyl)-N-ethylpiperidine-1-carboxamide] | 6.89 | 
CCC(CC)N1CCN(CCn2c(Sc3cc(OC)ccc3OC)nc3c(N)ncnc32)CC1 [Example 627, 8-[(2,5-Dimethoxyphenyl)thio]-9-{2-[4-(1-ethylpropyl)piperazin-1-yl]ethyl}-9 H-purin-6-amine] | < 5.10 | 
CC(C)(C)OC(=O)N1C=C(CCn2cnc(N)c3nc(Sc4cc5c(cc4Br)OCO5)nc2-3)CCC1 [Example 463, tert-Butyl 5-(2-{6-amino-8-[(6-bromo-1,3-benzodioxol-5-yl)thio]-3H-purin-3-yl}ethyl)-3,4-dihydropyridine-1(2 H)-carboxylate] |  | 14
Nc1ncnc2c1nc(Sc1cc3c(cc1Br)OCO3)n2CCc1c(F)cccc1Cl [Example 130, 8-(6-Bromo-benzo[1,3]dioxol-5-ylsulfanyl)-9-[2-(2-chloro-6-fluoro-phenyl)-ethyl]-9H-purin-6-ylamine] | 7.40 | 
N#Cc1ccc(Sc2nc3c(N)ncnc3n2CCc2ccccc2)cc1 [Example 19, 4-(6-Amino-9-phenethyl-9H-purin-8-ylsulfanyl)-benzonitrile] | < 5.00 | 
